Several values for one entry are separate records, joined by “and”; a condition that tells them apart may be missing. Equal values may be shown once.
What was measured:
PCTAIRE1 = PCTAIRE1 (Homo sapiens (Human), UniProt Q00536)
Description: (§1) The cells were harvested and lysed. The lysates were directly labeled with an ATP-biotin probe. Bound kinases were identified and quantitated by ACTIVX as described in Patricelli et al., Biochemistry, 2007, 46(2): 350-358. The compounds were tested in duplicates against duplicate or quadruplicate control samples.

PCTAIRE2 = PCTAIRE2 (Homo sapiens (Human), UniProt Q00537)
Description: as §1

PRP4 = PRP4 (Homo sapiens (Human), UniProt Q13523)
Description: as §1

MAPKAPK3 = MAPKAPK3 (Homo sapiens (Human), UniProt Q16644)
Description: as §1

PRPK = PRPK (Homo sapiens (Human), UniProt Q96S44)
Description: as §1

PCTAIRE2, PCTAIRE3 = assay: KINATIV assay; format: cell-based; conditions: 1 μM, 90 minutes, BCWM.1 cells
Text: (§2) The cells were harvested and lysed.

PCTAIRE1, PCTAIRE3 = assay: KINATIV assay; format: cell-based; conditions: 1 μM, 90 minutes, BCWM.1 cells
Text: as §2

ATR = ATR (Homo sapiens (Human), UniProt Q13535); assay: KINATIV assay; format: cell-based; conditions: 1 μM, 90 minutes, BCWM.1 cells
Outline: (§3)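 Kinase occupancy was profiled in native cell lysates, which were labeled with an ATP-biotin probe. Bound kinases were identified and quantitated using ACTIVX.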

RSKL1 = RSKL1 (Homo sapiens (Human), UniProt Q96S38); assay: KINATIV assay; format: cell-based; conditions: 1 μM, 90 minutes, BCWM.1 cells
Outline: as §3

MLKL = MLKL (Homo sapiens (Human), UniProt Q8NB16); assay: KINATIV assay; format: cell-based; conditions: 1 μM, 90 minutes, BCWM.1 cells
Outline: as §3

MSK2 domain1 = MSK2 domain1 (Homo sapiens (Human), UniProt O75676); assay: KINATIV assay; format: cell-based; conditions: 1 μM, 90 minutes, BCWM.1 cells
Outline: as §3

MST4, YSK1 = assay: KINATIV assay; format: cell-based; conditions: 1 μM, 90 minutes, BCWM.1 cells
Outline: as §3

NEK9 = NEK9 (Homo sapiens (Human), UniProt Q8TD19); assay: KINATIV assay; format: cell-based; conditions: 1 μM, 90 minutes, BCWM.1 cells
Outline: as §3

MAP3K2, MAP3K3 = assay: KINATIV assay; format: cell-based; conditions: 1 μM, 90 minutes, BCWM.1 cells
Outline: as §3

NEK7 = NEK7 (Homo sapiens (Human), UniProt Q8TDX7); assay: KINATIV assay; format: cell-based; conditions: 1 μM, 90 minutes, BCWM.1 cells
Outline: as §3

NEK2 = NEK2 (Homo sapiens (Human), UniProt P51955); assay: KINATIV assay; format: cell-based; conditions: 1 μM, 90 minutes, BCWM.1 cells
Outline: as §3

STK33 = STK33 (Homo sapiens (Human), UniProt Q9BYT3); assay: KINATIV assay; format: cell-based; conditions: 1 μM, 90 minutes, BCWM.1 cells
Outline: as §3

ABL, ARG = assay: KINATIV assay; format: cell-based; conditions: 1 μM, 90 minutes, BCWM.1 cells
Outline: as §3

LATS2 = LATS2 (Homo sapiens (Human), UniProt Q9NRM7); assay: KINATIV assay; format: cell-based; conditions: 1 μM, 90 minutes, BCWM.1 cells
Outline: as §3

Wnk1, Wnk2, Wnk4 = assay: KINATIV assay; format: cell-based; conditions: 1 μM, 90 minutes, BCWM.1 cells
Outline: as §3

BTK = BTK (Homo sapiens (Human), UniProt Q06187); assay: KINATIV assay; format: cell-based; conditions: 1 μM, 90 minutes, BCWM.1 cells
Outline: as §3

ROCK1 = ROCK1 (Homo sapiens (Human), UniProt Q13464); assay: KINATIV assay; format: cell-based; conditions: 1 μM, 90 minutes, BCWM.1 cells
Outline: as §3

p38d, p38g = assay: KINATIV assay; format: cell-based; conditions: 1 μM, 90 minutes, BCWM.1 cells
Outline: as §3

JAK1 = JAK1 (Homo sapiens (Human), UniProt P23458); assay: KINATIV assay; format: cell-based; conditions: 1 μM, 90 minutes, BCWM.1 cells
Outline: as §3

MLK3 = MLK3 (Homo sapiens (Human), UniProt Q16584); assay: KINATIV assay; format: cell-based; conditions: 1 μM, 90 minutes, BCWM.1 cells
Outline: as §3

KHS1 = KHS1 (Homo sapiens (Human), UniProt Q9Y4K4); assay: KINATIV assay; format: cell-based; conditions: 1 μM, 90 minutes, BCWM.1 cells
Outline: as §3

MASTL = MASTL (Homo sapiens (Human), UniProt Q96GX5); assay: KINATIV assay; format: cell-based; conditions: 1 μM, 90 minutes, BCWM.1 cells
Outline: as §3

FES = FES (Homo sapiens (Human), UniProt P07332); assay: KINATIV assay; format: cell-based; conditions: 1 μM, 90 minutes, BCWM.1 cells
Outline: as §3

LRRK2 = LRRK2 (Homo sapiens (Human), UniProt Q5S007); assay: KINATIV assay; format: cell-based; conditions: 1 μM, 90 minutes, BCWM.1 cells
Outline: as §3

TBK1 = TBK1 (Homo sapiens (Human), UniProt Q9UHD2); assay: KINATIV assay; format: cell-based; conditions: 1 μM, 90 minutes, BCWM.1 cells
Outline: as §3

CASK = CASK (Homo sapiens (Human), UniProt O14936); assay: KINATIV assay; format: cell-based; conditions: 1 μM, 90 minutes, BCWM.1 cells
Outline: as §3

IRE1 = IRE1 (Homo sapiens (Human), UniProt O75460); assay: KINATIV assay; format: cell-based; conditions: 1 μM, 90 minutes, BCWM.1 cells
Outline: as §3

ACK = ACK (Homo sapiens (Human), UniProt Q07912); assay: KINATIV assay; format: cell-based; conditions: 1 μM, 90 minutes, BCWM.1 cells
Outline: as §3

ULK1 = ULK1 (Homo sapiens (Human), UniProt O75385); assay: KINATIV assay; format: cell-based; conditions: 1 μM, 90 minutes, BCWM.1 cells
Outline: as §3

HPK1 = HPK1 (Homo sapiens (Human), UniProt Q92918); assay: KINATIV assay; format: cell-based; conditions: 1 μM, 90 minutes, BCWM.1 cells
Outline: as §3

KSR1, KSR2 = assay: KINATIV assay; format: cell-based; conditions: 1 μM, 90 minutes, BCWM.1 cells
Outline: as §3

PIK3CB = PIK3CB (Homo sapiens (Human), UniProt P42338); assay: KINATIV assay; format: cell-based; conditions: 1 μM, 90 minutes, BCWM.1 cells
Outline: as §3

Sequence of ACK (Q07912 whole entry): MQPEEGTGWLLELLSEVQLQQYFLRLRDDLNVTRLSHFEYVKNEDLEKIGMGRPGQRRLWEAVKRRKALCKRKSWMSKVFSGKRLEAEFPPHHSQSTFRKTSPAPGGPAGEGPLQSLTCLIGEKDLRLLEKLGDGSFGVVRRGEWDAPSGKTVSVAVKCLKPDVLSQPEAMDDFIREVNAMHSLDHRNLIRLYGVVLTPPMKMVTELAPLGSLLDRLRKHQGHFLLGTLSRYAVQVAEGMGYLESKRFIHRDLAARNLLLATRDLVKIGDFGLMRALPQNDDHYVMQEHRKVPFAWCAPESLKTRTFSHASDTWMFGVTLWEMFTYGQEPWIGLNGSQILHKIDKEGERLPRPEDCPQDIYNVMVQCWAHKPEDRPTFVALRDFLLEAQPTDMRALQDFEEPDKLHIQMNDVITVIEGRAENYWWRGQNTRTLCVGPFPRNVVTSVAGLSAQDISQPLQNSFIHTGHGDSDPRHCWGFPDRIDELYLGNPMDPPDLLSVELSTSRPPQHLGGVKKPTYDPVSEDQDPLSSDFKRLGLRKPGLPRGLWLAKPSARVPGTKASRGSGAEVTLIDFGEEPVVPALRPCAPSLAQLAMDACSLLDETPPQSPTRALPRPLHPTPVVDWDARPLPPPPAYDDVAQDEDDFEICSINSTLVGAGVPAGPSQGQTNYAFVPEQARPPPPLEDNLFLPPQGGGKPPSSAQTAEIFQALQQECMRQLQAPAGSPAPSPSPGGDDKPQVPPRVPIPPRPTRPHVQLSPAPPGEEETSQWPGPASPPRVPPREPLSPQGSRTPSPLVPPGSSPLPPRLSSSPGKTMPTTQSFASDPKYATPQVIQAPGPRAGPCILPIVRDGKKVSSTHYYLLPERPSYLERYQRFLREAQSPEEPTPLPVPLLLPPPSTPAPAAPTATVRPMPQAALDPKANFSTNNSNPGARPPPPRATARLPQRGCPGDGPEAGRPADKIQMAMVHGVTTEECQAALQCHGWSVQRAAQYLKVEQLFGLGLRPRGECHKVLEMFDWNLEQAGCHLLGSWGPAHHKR
Sequence of BTK (Q06187 whole entry, looked up): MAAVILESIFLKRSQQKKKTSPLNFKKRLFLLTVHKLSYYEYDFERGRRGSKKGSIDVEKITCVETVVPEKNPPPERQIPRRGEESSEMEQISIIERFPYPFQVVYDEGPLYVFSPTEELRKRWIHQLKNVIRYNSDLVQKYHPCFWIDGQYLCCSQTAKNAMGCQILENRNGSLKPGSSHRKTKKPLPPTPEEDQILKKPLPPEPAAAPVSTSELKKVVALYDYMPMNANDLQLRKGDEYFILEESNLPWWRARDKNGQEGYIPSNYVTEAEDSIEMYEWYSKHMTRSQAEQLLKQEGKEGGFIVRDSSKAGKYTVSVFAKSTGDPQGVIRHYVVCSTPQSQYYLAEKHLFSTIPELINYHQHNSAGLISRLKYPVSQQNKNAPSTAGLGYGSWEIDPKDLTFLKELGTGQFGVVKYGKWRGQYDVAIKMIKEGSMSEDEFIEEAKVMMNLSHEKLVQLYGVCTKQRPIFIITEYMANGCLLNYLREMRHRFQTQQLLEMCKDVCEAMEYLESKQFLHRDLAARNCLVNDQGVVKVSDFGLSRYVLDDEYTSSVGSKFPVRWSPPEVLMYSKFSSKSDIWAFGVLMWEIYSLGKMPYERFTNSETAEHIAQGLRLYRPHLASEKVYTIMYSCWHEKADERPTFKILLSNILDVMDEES
Sequence of HPK1 (Q92918 whole entry): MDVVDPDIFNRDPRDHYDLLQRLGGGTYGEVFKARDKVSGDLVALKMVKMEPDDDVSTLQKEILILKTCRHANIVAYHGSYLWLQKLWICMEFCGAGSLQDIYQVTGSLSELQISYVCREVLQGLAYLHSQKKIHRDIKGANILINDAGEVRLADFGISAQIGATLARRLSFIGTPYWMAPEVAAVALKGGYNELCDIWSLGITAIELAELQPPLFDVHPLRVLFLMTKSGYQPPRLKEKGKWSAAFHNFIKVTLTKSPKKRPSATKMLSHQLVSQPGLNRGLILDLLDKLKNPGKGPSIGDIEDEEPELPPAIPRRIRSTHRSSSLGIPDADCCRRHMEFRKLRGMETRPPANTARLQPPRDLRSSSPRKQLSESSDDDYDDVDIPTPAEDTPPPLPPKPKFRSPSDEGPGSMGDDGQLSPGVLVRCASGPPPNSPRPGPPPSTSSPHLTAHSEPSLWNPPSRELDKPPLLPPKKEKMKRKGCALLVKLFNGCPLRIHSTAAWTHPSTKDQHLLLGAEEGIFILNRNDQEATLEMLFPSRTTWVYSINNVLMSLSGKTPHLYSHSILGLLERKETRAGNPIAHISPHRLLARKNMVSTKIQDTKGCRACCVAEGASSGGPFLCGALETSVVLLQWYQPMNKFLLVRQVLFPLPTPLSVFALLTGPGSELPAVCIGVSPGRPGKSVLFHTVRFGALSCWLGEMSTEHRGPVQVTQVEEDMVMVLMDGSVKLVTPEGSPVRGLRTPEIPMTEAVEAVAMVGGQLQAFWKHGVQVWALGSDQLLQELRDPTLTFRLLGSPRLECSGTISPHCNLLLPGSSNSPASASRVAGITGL
Sequence of MASTL (Q96GX5 whole entry): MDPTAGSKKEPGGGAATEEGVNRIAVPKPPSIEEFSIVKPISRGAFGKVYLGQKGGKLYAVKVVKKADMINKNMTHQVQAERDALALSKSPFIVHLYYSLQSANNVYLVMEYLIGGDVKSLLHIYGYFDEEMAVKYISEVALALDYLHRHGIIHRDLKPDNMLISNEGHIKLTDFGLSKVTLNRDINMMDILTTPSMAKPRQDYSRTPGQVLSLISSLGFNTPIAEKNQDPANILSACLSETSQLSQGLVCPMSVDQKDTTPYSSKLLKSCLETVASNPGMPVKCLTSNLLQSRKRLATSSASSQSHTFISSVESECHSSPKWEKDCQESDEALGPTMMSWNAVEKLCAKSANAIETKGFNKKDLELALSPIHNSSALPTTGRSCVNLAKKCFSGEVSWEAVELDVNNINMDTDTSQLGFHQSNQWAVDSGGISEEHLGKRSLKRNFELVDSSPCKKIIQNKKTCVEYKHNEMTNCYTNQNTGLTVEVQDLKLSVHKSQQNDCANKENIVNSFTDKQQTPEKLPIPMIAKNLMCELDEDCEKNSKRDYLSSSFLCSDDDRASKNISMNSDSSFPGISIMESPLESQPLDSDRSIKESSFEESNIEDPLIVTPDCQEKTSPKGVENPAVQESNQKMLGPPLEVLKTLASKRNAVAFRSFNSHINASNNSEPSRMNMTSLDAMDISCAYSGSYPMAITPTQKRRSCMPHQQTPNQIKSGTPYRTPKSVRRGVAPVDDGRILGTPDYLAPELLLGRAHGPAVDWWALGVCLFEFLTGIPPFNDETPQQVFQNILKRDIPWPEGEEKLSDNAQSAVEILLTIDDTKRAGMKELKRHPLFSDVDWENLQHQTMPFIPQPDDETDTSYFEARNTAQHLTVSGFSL
Sequence of NEK9 (Q8TD19 whole entry): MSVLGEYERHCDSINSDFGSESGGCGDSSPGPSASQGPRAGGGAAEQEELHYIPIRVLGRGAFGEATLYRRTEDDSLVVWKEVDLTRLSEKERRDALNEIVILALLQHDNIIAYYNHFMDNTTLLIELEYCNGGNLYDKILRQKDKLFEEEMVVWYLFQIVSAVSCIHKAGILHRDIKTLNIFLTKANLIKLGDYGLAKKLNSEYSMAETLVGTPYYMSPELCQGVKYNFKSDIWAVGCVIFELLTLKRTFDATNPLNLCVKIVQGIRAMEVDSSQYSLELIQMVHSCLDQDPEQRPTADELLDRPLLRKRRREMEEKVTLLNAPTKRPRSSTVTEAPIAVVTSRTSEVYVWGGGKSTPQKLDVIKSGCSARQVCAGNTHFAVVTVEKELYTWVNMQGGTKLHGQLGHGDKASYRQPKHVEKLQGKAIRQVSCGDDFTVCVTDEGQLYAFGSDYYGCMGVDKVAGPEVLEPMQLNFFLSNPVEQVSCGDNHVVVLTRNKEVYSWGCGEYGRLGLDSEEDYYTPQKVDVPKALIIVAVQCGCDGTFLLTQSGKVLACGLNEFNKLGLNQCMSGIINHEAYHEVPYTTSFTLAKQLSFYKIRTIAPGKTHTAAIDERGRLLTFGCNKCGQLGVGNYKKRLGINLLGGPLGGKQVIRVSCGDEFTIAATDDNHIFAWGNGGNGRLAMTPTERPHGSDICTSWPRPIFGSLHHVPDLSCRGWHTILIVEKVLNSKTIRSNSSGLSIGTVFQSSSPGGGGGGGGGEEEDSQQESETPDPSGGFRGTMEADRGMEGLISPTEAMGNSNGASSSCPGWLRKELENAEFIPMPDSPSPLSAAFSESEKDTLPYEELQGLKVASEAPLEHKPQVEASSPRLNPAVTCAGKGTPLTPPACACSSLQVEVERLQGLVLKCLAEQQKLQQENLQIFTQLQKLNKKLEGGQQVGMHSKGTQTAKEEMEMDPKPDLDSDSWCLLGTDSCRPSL
Sequence of PCTAIRE2 (Q00537 whole entry, looked up): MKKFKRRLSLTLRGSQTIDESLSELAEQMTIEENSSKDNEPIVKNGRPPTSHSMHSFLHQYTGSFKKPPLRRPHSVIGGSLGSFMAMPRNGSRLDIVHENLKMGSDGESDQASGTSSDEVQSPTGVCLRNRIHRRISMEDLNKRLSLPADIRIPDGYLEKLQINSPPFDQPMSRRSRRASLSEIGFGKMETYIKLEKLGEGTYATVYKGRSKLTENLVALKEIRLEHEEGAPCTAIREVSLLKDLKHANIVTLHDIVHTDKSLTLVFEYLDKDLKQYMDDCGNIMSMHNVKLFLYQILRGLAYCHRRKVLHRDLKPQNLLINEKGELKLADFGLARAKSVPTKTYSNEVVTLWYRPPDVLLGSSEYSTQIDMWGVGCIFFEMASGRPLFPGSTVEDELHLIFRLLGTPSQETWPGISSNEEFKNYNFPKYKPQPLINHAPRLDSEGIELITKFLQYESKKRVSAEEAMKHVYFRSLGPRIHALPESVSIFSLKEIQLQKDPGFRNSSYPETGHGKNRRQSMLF

Row | SMILES | % change of MS signal compared to control sample (PCTAIRE1) | % change of MS signal compared to control sample (PCTAIRE2) | % change of MS signal compared to control sample (PRP4) | % change of MS signal compared to control sample (MAPKAPK3) | % change of MS signal compared to control sample (PRPK) | % change of MS signal compared to control sample (PCTAIRE2, PCTAIRE3) | % change of MS signal compared to control sample (PCTAIRE1, PCTAIRE3) | % change of MS signal compared to control sample (ATR) | % change of MS signal compared to control sample (RSKL1) | % change of MS signal compared to control sample (MLKL) | % change of MS signal compared to control sample (MSK2 domain1) | % change of MS signal compared to control sample (MST4, YSK1) | % change of MS signal compared to control sample (NEK9) | % change of MS signal compared to control sample (MAP3K2, MAP3K3) | % change of MS signal compared to control sample (NEK7) | % change of MS signal compared to control sample (NEK2) | % change of MS signal compared to control sample (STK33) | % change of MS signal compared to control sample (ABL, ARG) | % change of MS signal compared to control sample (LATS2) | % change of MS signal compared to control sample (Wnk1, Wnk2, Wnk4) | further results
1 | C=CC(=O)N1CCCCC(Nc2nccc(Nc3ncc(C(=O)Nc4c(C)cccc4C)s3)n2)C1 (centres unmarked) [Example I-7] | 38.2% | 9.9% | −4.1% | 0.9% | −3.8% | 27.0% | 14.9% | −48.0% | 29.7% | −6.3% | −45.3% | 12.7% | 2.5% and 1.1% | 15.6% | 10.0% | 8.5% | 21.1% | >90% and >97% | −6.6% | −6.6% | % change of MS signal compared to control sample (BTK): 98.9% and >90%; % change of MS signal compared to control sample (ROCK1): 6.6%; % change of MS signal compared to control sample (p38d, p38g): 1.7%; % change of MS signal compared to control sample (JAK1): 7.5%; % change of MS signal compared to control sample (MLK3): −4.6%; % change of MS signal compared to control sample (KHS1): −5.9%; % change of MS signal compared to control sample (MASTL): −10.9% and −13.8%; % change of MS signal compared to control sample (FES): −20.9%; % change of MS signal compared to control sample (LRRK2): −9.6%; % change of MS signal compared to control sample (TBK1): −39.7%; % change of MS signal compared to control sample (CASK): 37.7%; % change of MS signal compared to control sample (IRE1): −15.7%; % change of MS signal compared to control sample (ACK): 80.7% and 88.5%; % change of MS signal compared to control sample (ULK1): 19.3%; % change of MS signal compared to control sample (HPK1): 23.4% and 19.8%; % change of MS signal compared to control sample (KSR1, KSR2): −10.1%; % change of MS signal compared to control sample (PIK3CB): −42.6%
2 | C=CC(=O)N1CCC(Cn2ccc(Nc3ncc(C(=O)Nc4c(C)cccc4Cl)s3)n2)C1 (centres unmarked) [II-1] | 38.4% | 7.7% | 6.9% | 6.2% | −5.2% | 31.8% | 11.4% | −55.3% | 13.7% | −0.8% | −33.9% | 9.2% | −1.0% and −0.1% | 17.1% | −8.5% | −6.0% | 11.0% | 76.1% and 39.5% | −2.9% | −8.1% | % change of MS signal compared to control sample (BTK): 97.1% and >90%; % change of MS signal compared to control sample (ROCK1): 12.8%; % change of MS signal compared to control sample (p38d, p38g): −6.6%; % change of MS signal compared to control sample (JAK1): 5.4%; % change of MS signal compared to control sample (MLK3): −18.0%; % change of MS signal compared to control sample (KHS1): −0.6%; % change of MS signal compared to control sample (MASTL): −16.7% and −8.2%; % change of MS signal compared to control sample (FES): −15.0%; % change of MS signal compared to control sample (LRRK2): −20.9%; % change of MS signal compared to control sample (TBK1): −30.2%; % change of MS signal compared to control sample (CASK): 29.4%; % change of MS signal compared to control sample (IRE1): −29.5%; % change of MS signal compared to control sample (ACK): 51.7% and 50.8%; % change of MS signal compared to control sample (ULK1): 19.7%; % change of MS signal compared to control sample (HPK1): 23.0% and 12.1%; % change of MS signal compared to control sample (KSR1, KSR2): −8.7%; % change of MS signal compared to control sample (PIK3CB): −64.9%

Source: patent US10844077B2, “Thiazolyl-containing compounds for treating proliferative diseases” (Dana-Farber Cancer Institute, Inc., priority 2014, dated 2020)
